Values of other authors as cited in US20110143366A1, “PROTEIN BIOMARKERS FOR IN VITRO TESTING OF DEVELOPMENTAL TOXICITY AND ENBRYOTOXICITY OF CHEMICAL SUBSTANCES” (PROTEOSYS AG, priority 2008, published 2011).

Test system: Cardiomyocytes differentiated from murine embryonic stem cells (EST model)
Details: substances with known embryotoxic potency used in the EST model

Row | Structure (SMILES) | Embryotoxicity class of the substance
1 | CC(C)(S)[C@@H](N)C(=O)O [D-penicillamine] | non-embryotoxic
2 | CC[C@H](C)C(=O)O[C@H]1C[C@@H](C)C=C2C=C[C@H](C)[C@H](CC[C@@H]3C[C@@H](O)CC(=O)O3)[C@H]21 [Lovastatin] | highly embryotoxic
3 | O=[N+]([O-])c1ccc(Oc2ccc(Cl)cc2Cl)cc1 [Nitrofen] | highly embryotoxic
4 | C[C@@H]1Cc2c(Cl)cc(C(=O)N[C@@H](Cc3ccccc3)C(=O)O)c(O)c2C(=O)O1 [Ochratoxin, Ochratoxin-A] | highly embryotoxic
5 | CN(C)CCOC(C)(c1ccccc1)c1ccccn1 (centres unmarked) [doxylamine] | non-embryotoxic
6 | CCN(CC)CCNC(=O)c1cc(Cl)c(N)cc1OC [metoclopramide] | non-embryotoxic
7 | CC[C@H](C)C(=O)O[C@H]1C[C@H](O)C=C2C=C[C@H](C)[C@H](CC[C@@H](O)C[C@@H](O)CC(=O)O)[C@H]21 [pravastatin] | moderately embryotoxic
8 | N#CCCN [β-aminoproprionitril] | non-embryotoxic
